This experiment addresses T1, aquaporin-3 (AQP3) (Homo sapiens, UniProt Q92482).
T1 construct: human AQP3 C-terminally GFP-tagged, expressed in aqy-null S. cerevisiae; endogenous AQP3 in human red blood cells
T1 sequence (Q92482 1-292): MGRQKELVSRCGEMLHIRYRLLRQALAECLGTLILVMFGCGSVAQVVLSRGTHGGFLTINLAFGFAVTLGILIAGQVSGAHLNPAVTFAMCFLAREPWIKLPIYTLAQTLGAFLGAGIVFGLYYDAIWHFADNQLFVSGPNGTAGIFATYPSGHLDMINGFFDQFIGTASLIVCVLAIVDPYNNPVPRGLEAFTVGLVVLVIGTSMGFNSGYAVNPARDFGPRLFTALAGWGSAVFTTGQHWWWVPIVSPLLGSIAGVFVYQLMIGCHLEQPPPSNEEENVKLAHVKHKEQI
Nature of the experiment: stopped-flow glycerol permeability in hRBCs (IC50), confirmed in hAQP3-expressing yeast ([…] inhibition at […]). Type of experiment: cell-based.

SMILES strings stand for the structures.

The IC50 is the midpoint of a concentration-inhibition curve. Read a low IC50 as greater potency. The compound `CC(=O)c1c(O)c(C)c(O)c(Cc2c(O)c3c(c(C(=O)/C=C/c4ccccc4)c2O)OC(C)(C)C=C3)c1O` [RoT, Rottlerin] showed an IC50 of 6.7 ± 2.97 µM.

The values above are taken from publication PMC10057066, “Unraveling the Aquaporin-3 Inhibitory Effect of Rottlerin by Experimental and Computational Approaches” (International Journal of Molecular Sciences, 2023).
